Source: PMC8199030, “Salvia officinalis L.: Antitrypanosomal Activity and Active Constituents against Trypanosoma brucei rhodesiense” (Molecules, 2021)
Values after ≈ are worked out from the molar mass of the structure shown. Values joined by “and” are separate entries in the source; they are usually repeats but may differ in a detail not shown here. Equal entries are not always repeated. Where two headings read alike, the source gives them in different places.

How the values were obtained:
in vitro = conditions: rat
Protocol: (§1) Samples with a defined concentration of 2 mg/mL were prepared of each fraction and analyzed by UHPLC/ESI-QqTOF-MS (henceforth abbreviated LC/MS) to determine the analytical fingerprints. After the analysis and dereplication of major peaks (see Figure S1 and Table S1 in Supplementary Material) as well as comparison of the samples’ analytical profiles, 17 representative fractions were selected to be assayed in vitro against Tbr. […] IC50 values for the individual fractions were not determined, in order to save resources and since the % GI data can serve as an approximate substitute in cases where relative activities of similar samples such as the fractions under study are compared.
(§2) Melarsoprol was used as positive control. The cytotoxicity of the compounds was assessed using L6 rat skeletal myoblast cells and podophyllotoxin as a reference drug.
(§3) In vitro assays for the bioactivity against Trypanosoma brucei rhodesiense (Tbr, bloodstream-form trypomastigotes, STIB 900 strain) and cytotoxicity tests against mammalian cells (L6-cell-line from rat skeletal myoblasts) were performed at the Swiss Tropical and Public Health Institute (Swiss TPH, Basel, Switzerland), according to established protocols and as previously described.

[1] = Cytotoxicity against mammalian L6 cells; format: cell-based; conditions: rat
[2] = test system: Trypanosoma brucei rhodesiense (Tbr, bloodstream-form trypomastigotes, STIB 900 strain); conditions: cited from earlier work
[3] = test system: Trypanosoma brucei rhodesiense (Tbr, bloodstream-form trypomastigotes, STIB 900 strain); assay: microbe, parasite or virus in culture; conditions: Trypanosoma brucei, read-out: IC50 Tbr (STIB 900)
Protocol: as §1, §2, §3

[4] = mean of two independent determinations ± deviation from the mean, read-out: IC50 Cytotox L6
[5] = mean of two independent determinations, read-out: IC50 Cytotox L6

Compound | selectivity ratio (in vitro) | IC50 [1] | IC50 against Tbr, previous study ([2]; previous study) [µg/mL] | IC50 [3] | IC50 [1, 4] [µg/mL] | IC50 [1, 5] [µM] | activity against Tbr, previously reported [2]
COc1cc2oc(-c3ccc(O)cc3)cc(=O)c2c(O)c1OC [Cirsimaritin (1), 4’,5-dihydroxy-6,7-dimethoxyflavone] | 2.8 | 4.6 µg/mL and 15 µM | 3.3 (≈ 10.5 µM) |  |  |  | 
CC(C)c1cc2c(c(O)c1O)[C@@]13CCCC(C)(C)[C@@H]1[C@H](OC3=O)[C@@H]2O [Epirosmanol (2), epirosmanol] | 1.6 | 5 µg/mL and 15 µM |  | 3.2 µg/mL and 9.3 µM |  |  | 
C=C[C@](C)(O)CC[C@H]1C(=C)CC[C@H]2C(C)(C)CCC[C@]12C [Manool (9), manool] | 2.1 |  |  |  | 5.6 ± 0.5 | 19 | 
CO[C@H]1c2cc(C(C)C)c(O)c(O)c2[C@@]23CCCC(C)(C)[C@@H]2[C@@H]1OC3=O [7-O-Methylrosmanol (5), 7-O-methylrosmanol] | 0.8 |  |  | 8.3 µg/mL and 23 µM | 6.6 ± 0.8 | 18 | 
COc1c(C(C)C)cc2c(c1O)[C@@]1(C(=O)O)CCCC(C)(C)[C@@H]1CC2 [12-O-Methylcarnosic acid (8), 12-O-methylcarnosic acid] | 1.3 | 20 µg/mL and 56 µM |  | 15 µg/mL and 44 µM |  |  | 
COc1cc([C@@H]2c3cc4c(cc3[C@H](O)[C@H]3COC(=O)[C@H]23)OCO4)cc(OC)c1OC [Podophyllotoxin, reference compound] |  |  |  |  | 0.009 ± 0.001 | 0.022 | 
CC(C)C1=Cc2ccc3c(c2C(=O)C1=O)CCCC3(C)C [Miltirone, miltirone, reference compound] |  |  |  |  |  |  | very potent activity
CC(C)c1cc2c(c(O)c1O)[C@@]13CCCC(C)(C)[C@@H]1[C@H](OC3=O)[C@H]2O [Compound 3, rosmanol] |  |  |  | ~8.3 µg/mL (≈ 24 µM) |  |  | 
